The values that follow come from patent US9340590B2 (priority 2011, dated 2016).

Common to all, as to experiment: cell-based
The target in assay [1] is T1, hNav1.5 (Homo sapiens, UniProt Q14524).
The target of assay [2] is T2, hNav1.3 (Homo sapiens, UniProt Q9NY46). It is filed as cell-based. To be noted: for IC50: Nav1.3 Use IC50.
Assay [3] has as its target T3, hNav1.7 (Homo sapiens, UniProt Q15858).
Assay [4] addresses T1, hNav1.5. This is another data set of the same source.
The target of assay [5] is T3, hNav1.7. It is filed as cell-based.
Assay [6] addresses T2, hNav1.3.
Where [7] appears, read: IonWorks Quattro, clamped to −110 mV, depolarized to −10 mV, 5 min after compound, n=2, read-out: IWQ Use Nav1.5.
Setting [8] is: IonWorks Quattro, clamped to −110 mV, depolarized to −10 mV, 5 min after compound, n=2, read-out: IWQ Use Nav1.7.
The mark [9] stands for this setting: IonWorks Quattro, clamped to −110 mV, depolarized to −10 mV, 5 min after compound, n=2, read-out: IWQ Use Nav1.3.

Where two headings read alike, the source gives them in different places. Positions of bridges follow the written chain, without caps; N, C: chain ends. Non-standard residues stand in square brackets, D forms with d. Residues, ends and D or L forms follow the SMILES beside them. 1Nal = N[C@@H](Cc1cccc2ccccc12)C(=O)O

T1 sequence (Q14524 whole entry, looked up): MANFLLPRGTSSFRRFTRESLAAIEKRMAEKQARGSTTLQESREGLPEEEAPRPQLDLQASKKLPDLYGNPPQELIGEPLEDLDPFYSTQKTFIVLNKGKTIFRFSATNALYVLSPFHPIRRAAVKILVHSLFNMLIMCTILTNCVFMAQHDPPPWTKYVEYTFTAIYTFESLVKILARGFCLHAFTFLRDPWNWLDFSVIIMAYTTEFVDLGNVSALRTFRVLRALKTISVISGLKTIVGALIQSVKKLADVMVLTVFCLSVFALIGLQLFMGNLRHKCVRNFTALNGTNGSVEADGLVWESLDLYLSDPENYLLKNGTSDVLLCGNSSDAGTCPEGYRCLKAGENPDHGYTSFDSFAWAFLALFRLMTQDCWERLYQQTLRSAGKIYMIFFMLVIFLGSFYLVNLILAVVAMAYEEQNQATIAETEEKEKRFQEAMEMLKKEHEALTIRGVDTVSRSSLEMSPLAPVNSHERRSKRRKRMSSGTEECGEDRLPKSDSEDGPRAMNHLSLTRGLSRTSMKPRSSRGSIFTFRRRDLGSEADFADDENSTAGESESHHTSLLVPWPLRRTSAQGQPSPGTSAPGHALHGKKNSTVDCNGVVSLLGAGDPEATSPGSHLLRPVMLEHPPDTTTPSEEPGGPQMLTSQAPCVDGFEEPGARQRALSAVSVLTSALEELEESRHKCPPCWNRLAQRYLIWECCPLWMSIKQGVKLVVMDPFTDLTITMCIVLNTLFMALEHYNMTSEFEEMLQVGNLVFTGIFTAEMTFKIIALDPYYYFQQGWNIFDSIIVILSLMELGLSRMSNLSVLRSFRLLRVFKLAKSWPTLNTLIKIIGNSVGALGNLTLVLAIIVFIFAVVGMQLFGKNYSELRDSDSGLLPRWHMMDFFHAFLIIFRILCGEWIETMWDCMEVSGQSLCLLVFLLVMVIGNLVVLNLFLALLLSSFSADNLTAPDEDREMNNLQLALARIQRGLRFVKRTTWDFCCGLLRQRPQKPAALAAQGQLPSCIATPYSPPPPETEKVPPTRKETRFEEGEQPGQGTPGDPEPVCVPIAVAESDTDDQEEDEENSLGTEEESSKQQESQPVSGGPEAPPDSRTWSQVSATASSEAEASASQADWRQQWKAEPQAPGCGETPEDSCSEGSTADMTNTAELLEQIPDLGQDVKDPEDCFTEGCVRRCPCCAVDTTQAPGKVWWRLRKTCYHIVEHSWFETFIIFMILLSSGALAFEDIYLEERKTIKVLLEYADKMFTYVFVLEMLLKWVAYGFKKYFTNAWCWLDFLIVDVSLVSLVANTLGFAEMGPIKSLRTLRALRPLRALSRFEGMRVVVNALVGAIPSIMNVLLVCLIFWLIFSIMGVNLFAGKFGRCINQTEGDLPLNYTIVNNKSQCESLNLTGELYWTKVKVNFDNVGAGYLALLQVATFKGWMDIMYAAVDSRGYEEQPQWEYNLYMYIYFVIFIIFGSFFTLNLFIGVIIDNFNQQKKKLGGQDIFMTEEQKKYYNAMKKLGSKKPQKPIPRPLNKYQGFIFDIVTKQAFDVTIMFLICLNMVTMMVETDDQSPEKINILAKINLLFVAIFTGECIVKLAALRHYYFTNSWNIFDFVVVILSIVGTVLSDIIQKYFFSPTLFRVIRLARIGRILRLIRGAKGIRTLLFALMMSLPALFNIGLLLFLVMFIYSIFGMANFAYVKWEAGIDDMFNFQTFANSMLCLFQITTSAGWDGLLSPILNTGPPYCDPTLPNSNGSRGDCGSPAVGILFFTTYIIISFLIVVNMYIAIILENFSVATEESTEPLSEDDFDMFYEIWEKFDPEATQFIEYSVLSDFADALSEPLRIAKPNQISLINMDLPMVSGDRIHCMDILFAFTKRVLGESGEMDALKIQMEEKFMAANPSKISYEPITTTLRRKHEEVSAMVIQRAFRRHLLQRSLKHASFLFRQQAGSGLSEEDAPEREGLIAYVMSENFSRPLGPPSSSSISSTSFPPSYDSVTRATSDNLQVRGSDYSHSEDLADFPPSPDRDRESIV
T2 sequence (Q9NY46 whole entry, looked up): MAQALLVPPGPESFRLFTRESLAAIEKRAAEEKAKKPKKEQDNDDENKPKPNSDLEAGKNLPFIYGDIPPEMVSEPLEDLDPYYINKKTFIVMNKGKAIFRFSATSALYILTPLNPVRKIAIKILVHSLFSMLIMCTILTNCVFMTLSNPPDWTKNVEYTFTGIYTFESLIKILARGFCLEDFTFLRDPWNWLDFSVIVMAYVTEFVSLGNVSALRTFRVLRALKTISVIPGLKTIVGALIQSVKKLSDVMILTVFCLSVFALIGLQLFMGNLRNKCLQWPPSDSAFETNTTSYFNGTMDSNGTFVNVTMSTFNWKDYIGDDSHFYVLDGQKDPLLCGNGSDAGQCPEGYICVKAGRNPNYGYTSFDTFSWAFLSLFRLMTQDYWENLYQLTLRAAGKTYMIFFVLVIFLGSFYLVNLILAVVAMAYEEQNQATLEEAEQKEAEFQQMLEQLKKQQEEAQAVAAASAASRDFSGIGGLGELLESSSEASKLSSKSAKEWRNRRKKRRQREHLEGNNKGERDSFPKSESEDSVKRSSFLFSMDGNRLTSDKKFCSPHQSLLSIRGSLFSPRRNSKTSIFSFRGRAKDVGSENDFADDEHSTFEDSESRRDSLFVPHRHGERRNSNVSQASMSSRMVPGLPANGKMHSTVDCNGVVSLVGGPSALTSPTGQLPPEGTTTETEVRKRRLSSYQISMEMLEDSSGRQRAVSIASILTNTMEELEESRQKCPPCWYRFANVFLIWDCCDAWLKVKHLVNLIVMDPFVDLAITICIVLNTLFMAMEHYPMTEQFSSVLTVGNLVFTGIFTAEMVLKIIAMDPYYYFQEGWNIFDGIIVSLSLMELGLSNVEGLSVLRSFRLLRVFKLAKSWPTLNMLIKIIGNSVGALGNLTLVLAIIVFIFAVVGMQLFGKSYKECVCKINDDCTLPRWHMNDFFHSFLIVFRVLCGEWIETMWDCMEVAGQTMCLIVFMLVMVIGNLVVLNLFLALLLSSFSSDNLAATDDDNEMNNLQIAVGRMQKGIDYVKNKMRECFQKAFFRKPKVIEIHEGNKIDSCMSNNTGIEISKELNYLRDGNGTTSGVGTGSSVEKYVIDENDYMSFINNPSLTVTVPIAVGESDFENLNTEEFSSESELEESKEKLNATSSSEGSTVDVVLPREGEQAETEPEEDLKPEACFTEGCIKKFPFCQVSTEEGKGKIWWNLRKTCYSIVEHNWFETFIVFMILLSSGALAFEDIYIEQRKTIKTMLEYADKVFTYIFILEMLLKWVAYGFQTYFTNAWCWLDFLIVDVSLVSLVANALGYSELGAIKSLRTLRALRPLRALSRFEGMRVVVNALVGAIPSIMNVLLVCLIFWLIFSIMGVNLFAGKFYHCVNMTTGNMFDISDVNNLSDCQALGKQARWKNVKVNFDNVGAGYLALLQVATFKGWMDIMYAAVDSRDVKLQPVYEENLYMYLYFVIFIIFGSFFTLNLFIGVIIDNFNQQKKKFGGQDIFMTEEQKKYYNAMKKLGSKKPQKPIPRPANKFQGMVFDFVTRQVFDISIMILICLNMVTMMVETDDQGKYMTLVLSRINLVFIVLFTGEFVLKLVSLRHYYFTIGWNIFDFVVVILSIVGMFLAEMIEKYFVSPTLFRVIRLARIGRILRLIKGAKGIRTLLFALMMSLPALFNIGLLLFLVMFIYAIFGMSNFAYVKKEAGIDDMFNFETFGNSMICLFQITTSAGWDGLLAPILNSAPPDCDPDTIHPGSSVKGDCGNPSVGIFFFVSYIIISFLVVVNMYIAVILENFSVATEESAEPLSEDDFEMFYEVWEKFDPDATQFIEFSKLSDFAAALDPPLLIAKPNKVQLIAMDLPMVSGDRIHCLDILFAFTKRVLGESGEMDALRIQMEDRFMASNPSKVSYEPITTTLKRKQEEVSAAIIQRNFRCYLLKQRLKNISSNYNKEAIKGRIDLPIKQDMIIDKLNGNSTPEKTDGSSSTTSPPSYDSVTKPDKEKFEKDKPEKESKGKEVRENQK

As to `CC[C@H](C)[C@@H]1NC(=O)[C@@H]2CSSC[C@@H]3NC(=O)[C@H](C(C)C)NC(=O)[C@H](CC(C)C)NC(=O)[C@H](CC(N)=O)NC(=O)[C@@H]4CCCN4C(=O)[C@H](CCCNC(=N)N)NC(=O)[C@H](CSSC[C@H](NC(=O)[C@@H](N)CC(=O)O)C(=O)N[C@@H](CC(C)C)C(=O)NCC(=O)N[C@@H](Cc4ccc(-c5ccccc5)cc4)C(=O)N[C@@H](CCSC)C(=O)N[C@@H](CCCNC(=N)N)C(=O)N[C@@H](CCCCN)C(=O)N2)NC(=O)[C@H](CSSC[C@@H](C(=O)N[C@@H](CCCCN)C(=O)N[C@@H](Cc2ccc(O)cc2)C(=O)N[C@H](C(=O)N[C@@H](Cc2ccccc2)C(N)=O)C(C)C)NC(=O)[C@H](Cc2c[nH]c4ccccc24)NC(=O)[C@H](CCCCN)NC(=O)[C@H](Cc2c[nH]cn2)NC(=O)[C@H]([C@@H](C)O)NC(=O)[C@H](CCCNC(=N)N)NC(=O)[C@H](CO)NC3=O)NC(=O)[C@H](CCCCN)NC(=O)[C@H](CC(=O)O)NC(=O)[C@H](CC(N)=O)NC(=O)[C@H](CC(=O)O)NC(=O)[C@@H]2CCCN2C1=O` [SEQ ID NO: 242], the IC50 on hNav1.5 [1] (setting [7]) stood at 3380 nM; against hNav1.3 [2], 3 nM; on hNav1.7 [3] (Nav1.7 Use IC50), 62 nM; at hNav1.5 [4] (read-out: Nav1.5 Use IC50), 2080 nM; on hNav1.7 [5] (setting [8]) it was 60 nM. The “potency against NaV1.3, in words” value at hNav1.3 [2] is given as “increased potency”.

`CC[C@H](C)[C@@H]1NC(=O)[C@@H]2CSSC[C@@H]3NC(=O)[C@H](C(C)C)NC(=O)[C@H](CC(C)C)NC(=O)[C@H](CC(N)=O)NC(=O)[C@@H]4CCCN4C(=O)[C@H](CCCNC(=N)N)NC(=O)[C@H](CSSC[C@H](NC(=O)[C@@H](N)CC(=O)O)C(=O)N[C@@H](CC(C)C)C(=O)NCC(=O)N[C@@H](CC4CCCCC4)C(=O)N[C@@H](CCSC)C(=O)N[C@@H](CCCNC(=N)N)C(=O)N[C@@H](CCCCN)C(=O)N2)NC(=O)[C@H](CSSC[C@@H](C(=O)N[C@@H](CCCCN)C(=O)N[C@@H](Cc2ccc(O)cc2)C(=O)N[C@H](C(=O)N[C@@H](Cc2ccccc2)C(N)=O)C(C)C)NC(=O)[C@H](Cc2c[nH]c4ccccc24)NC(=O)[C@H](CCCCN)NC(=O)[C@H](Cc2cnc[nH]2)NC(=O)[C@H]([C@@H](C)O)NC(=O)[C@H](CCCNC(=N)N)NC(=O)[C@H](CO)NC3=O)NC(=O)[C@H](CCCCN)NC(=O)[C@H](CC(=O)O)NC(=O)[C@H](CC(N)=O)NC(=O)[C@H](CC(=O)O)NC(=O)[C@@H]2CCCN2C1=O` [SEQ ID NO: 243]: the IC50 at hNav1.5 [1] (setting [7]) was 6990 nM; on hNav1.3 [6], 20 nM; at hNav1.3 [2], 7 nM; against hNav1.7 [3] (Nav1.7 Use IC50), 3 nM; against hNav1.5 [4] it was 3390 nM; on hNav1.7 [5] (setting [8]), 10 nM.

In the case of `CC[C@H](C)[C@@H]1NC(=O)[C@@H]2CSSC[C@@H]3NC(=O)[C@H](C(C)C)NC(=O)[C@H](CC(C)C)NC(=O)[C@H](CC(N)=O)NC(=O)[C@@H]4CCCN4C(=O)[C@H](CCCNC(=N)N)NC(=O)[C@H](CSSC[C@H](NC(=O)[C@@H](N)CC(=O)O)C(=O)N[C@@H](CC(C)C)C(=O)NCC(=O)N[C@@H](Cc4ccccc4)C(=O)N[C@@H](CC4CCCCC4)C(=O)N[C@@H](CCCNC(=N)N)C(=O)N[C@@H](CCCCN)C(=O)N2)NC(=O)[C@H](CSSC[C@@H](C(=O)N[C@@H](CCCCN)C(=O)N[C@@H](Cc2ccc(O)cc2)C(=O)N[C@H](C(=O)N[C@@H](Cc2ccccc2)C(N)=O)C(C)C)NC(=O)[C@H](Cc2c[nH]c4ccccc24)NC(=O)[C@H](CCCCN)NC(=O)[C@H](Cc2cnc[nH]2)NC(=O)[C@H]([C@@H](C)O)NC(=O)[C@H](CCCNC(=N)N)NC(=O)[C@H](CO)NC3=O)NC(=O)[C@H](CCCCN)NC(=O)[C@H](CC(=O)O)NC(=O)[C@H](CC(N)=O)NC(=O)[C@H](CC(=O)O)NC(=O)[C@@H]2CCCN2C1=O` [SEQ ID NO: 245], the IC50 is 2370 nM on hNav1.5 [1] (setting [7]); 2 nM on hNav1.3 [2]; 3 nM on hNav1.7 [3] (Nav1.7 Use IC50); 2680 nM against hNav1.5 [4]; 20 nM at hNav1.7 [5] (setting [8]).

With `CC[C@H](C)[C@@H]1NC(=O)[C@@H]2CSSC[C@@H]3NC(=O)[C@H](C(C)C)NC(=O)[C@H](CC(C)C)NC(=O)[C@H](CC(N)=O)NC(=O)[C@@H]4CCCN4C(=O)[C@H](CCCNC(=N)N)NC(=O)[C@H](CSSC[C@H](NC(=O)[C@@H](N)Cc4cccc5ccccc45)C(=O)N[C@@H](CC(C)C)C(=O)NCC(=O)N[C@@H](Cc4ccccc4)C(=O)N[C@@H](CCSC)C(=O)N[C@@H](CCCNC(=N)N)C(=O)N[C@@H](CCCCN)C(=O)N2)NC(=O)[C@H](CSSC[C@@H](C(=O)N[C@@H](CCCCN)C(=O)N[C@@H](Cc2ccc(O)cc2)C(=O)N[C@H](C(=O)N[C@@H](Cc2ccccc2)C(N)=O)C(C)C)NC(=O)[C@H](Cc2c[nH]c4ccccc24)NC(=O)[C@H](CCCCN)NC(=O)[C@H](Cc2c[nH]cn2)NC(=O)[C@H]([C@@H](C)O)NC(=O)[C@H](CCCNC(=N)N)NC(=O)[C@H](CO)NC3=O)NC(=O)[C@H](CCCCN)NC(=O)[C@H](CC(=O)O)NC(=O)[C@H](CC(N)=O)NC(=O)[C@H](CC(=O)O)NC(=O)[C@@H]2CCCN2C1=O` [SEQ ID NO: 77] (H-[1Nal]CLGFMRKCIPDNDKCCRPNLVCSRTHKWCKYVF-NH2; disulfide 2-17, 9-23, 16-30), the IC50 at hNav1.5 [1] (setting [7]) was determined as 13400 nM; at hNav1.3 [6] (setting [9]), 140 nM; at hNav1.3 [2], 66 nM; against hNav1.7 [3] (Nav1.7 Use IC50), 23 nM; against hNav1.5 [4] it was 7600 nM; against hNav1.7 [5] it was 110 nM.

As for `CC[C@H](C)[C@@H]1NC(=O)[C@@H]2CSSC[C@@H]3NC(=O)[C@H](C(C)C)NC(=O)[C@H](CC(C)C)NC(=O)[C@H](CC(N)=O)NC(=O)[C@@H]4CCCN4C(=O)[C@H](CCCNC(=N)N)NC(=O)[C@H](CSSC[C@H](NC(=O)[C@@H](N)CC(=O)O)C(=O)N[C@@H](CC(C)C)C(=O)NCC(=O)N[C@@H](Cc4ccccc4)C(=O)N[C@@H](Cc4ccccc4)C(=O)N[C@@H](CCCNC(=N)N)C(=O)N[C@@H](CCCCN)C(=O)N2)NC(=O)[C@H](CSSC[C@@H](C(=O)N[C@@H](CCCCN)C(=O)N[C@@H](Cc2ccc(O)cc2)C(=O)N[C@H](C(=O)N[C@@H](Cc2ccccc2)C(N)=O)C(C)C)NC(=O)[C@H](Cc2c[nH]c4ccccc24)NC(=O)[C@H](CCCCN)NC(=O)[C@H](Cc2cnc[nH]2)NC(=O)[C@H]([C@@H](C)O)NC(=O)[C@H](CCCNC(=N)N)NC(=O)[C@H](CO)NC3=O)NC(=O)[C@H](CCCCN)NC(=O)[C@H](CC(=O)O)NC(=O)[C@H](CC(N)=O)NC(=O)[C@H](CC(=O)O)NC(=O)[C@@H]2CCCN2C1=O` [SEQ ID NO: 89] (H-DCLGFFRKCIPDNDKCCRPNLVCSRTHKWCKYVF-NH2; disulfide 2-17, 9-23, 16-30), the IC50 at hNav1.5 [1] (setting [7]) worked out at 9210 nM; on hNav1.3 [6] (setting [9]), 30 nM; at hNav1.3 [2], 16 nM; against hNav1.7 [3] (Nav1.7 Use IC50) it was 15 nM; at hNav1.5 [4], 3160 nM; against hNav1.7 [5], 50 nM.

In the case of `CC[C@H](C)[C@@H]1NC(=O)[C@@H]2CSSC[C@@H]3NC(=O)[C@H](C(C)C)NC(=O)[C@H](CC(C)C)NC(=O)[C@H](CC(N)=O)NC(=O)[C@@H]4CCCN4C(=O)[C@H](CCCNC(=N)N)NC(=O)[C@H](CSSC[C@H](NC(=O)[C@@H](N)CC(=O)O)C(=O)N[C@@H](CC(C)C)C(=O)NCC(=O)N[C@@H](Cc4ccccc4)C(=O)N[C@@H](Cc4cccc5ccccc45)C(=O)N[C@@H](CCCNC(=N)N)C(=O)N[C@@H](CCCCN)C(=O)N2)NC(=O)[C@H](CSSC[C@@H](C(=O)N[C@@H](CCCCN)C(=O)N[C@@H](Cc2ccc(O)cc2)C(=O)N[C@H](C(=O)N[C@@H](Cc2ccccc2)C(N)=O)C(C)C)NC(=O)[C@H](Cc2c[nH]c4ccccc24)NC(=O)[C@H](CCCCN)NC(=O)[C@H](Cc2c[nH]cn2)NC(=O)[C@H]([C@@H](C)O)NC(=O)[C@H](CCCNC(=N)N)NC(=O)[C@H](CO)NC3=O)NC(=O)[C@H](CCCCN)NC(=O)[C@H](CC(=O)O)NC(=O)[C@H](CC(N)=O)NC(=O)[C@H](CC(=O)O)NC(=O)[C@@H]2CCCN2C1=O` [SEQ ID NO: 161], the IC50 at hNav1.5 [1] (IWQ Use Nav1.5) turned out to be 2340 nM; at hNav1.3 [6] (setting [9]), 6 nM; against hNav1.3 [2] it was 4 nM; on hNav1.7 [3] (Nav1.7 Use IC50) it was 3 nM; against hNav1.5 [4], 358 nM; on hNav1.7 [5] (setting [8]), 7 nM.

Consider `CCCC[C@@H]1NC(=O)[C@H](Cc2ccccc2)NC(=O)CNC(=O)[C@H](CC(C)C)NC(=O)[C@@H](NC(=O)[C@@H](N)CC(=O)O)CSSC[C@@H]2NC(=O)[C@@H]3CSSC[C@@H](C(=O)N[C@@H](CCCCN)C(=O)N[C@@H](Cc4ccc(O)cc4)C(=O)N[C@H](C(=O)N[C@@H](Cc4ccccc4)C(N)=O)C(C)C)NC(=O)[C@H](Cc4c[nH]c5ccccc45)NC(=O)[C@H](CCCCN)NC(=O)[C@H](Cc4c[nH]cn4)NC(=O)[C@H]([C@@H](C)O)NC(=O)[C@H](CCCNC(=N)N)NC(=O)[C@H](CO)NC(=O)[C@H](CSSC[C@H](NC(=O)[C@H](CCCCN)NC(=O)[C@H](CCCNC(=N)N)NC1=O)C(=O)N[C@@H]([C@@H](C)CC)C(=O)N1CCC[C@H]1C(=O)N[C@@H](CC(=O)O)C(=O)N[C@@H](CC(N)=O)C(=O)N[C@@H](CC(=O)O)C(=O)N[C@@H](CCCCN)C(=O)N3)NC(=O)[C@H](C(C)C)NC(=O)[C@H](CC(C)C)NC(=O)[C@H](CC(N)=O)NC(=O)[C@@H]1CCCN1C(=O)[C@H](CCCNC(=N)N)NC2=O` [SEQ ID NO: 123], for which the IC50 on hNav1.5 [1] (setting [7]) was 4500 nM; on hNav1.3 [6] (setting [9]), 20 nM; against hNav1.3 [2], 9 nM; at hNav1.7 [3] (read-out: Nav1.7 Use IC50) it was 8 nM; against hNav1.5 [4] it was 1150 nM; on hNav1.7 [5] (setting [8]), 50 nM.
